Reference: patent US12303484B2, “Method of treating cancer” (University of Louisiana at Lafayette, priority 2019, dated 2025)
Where two headings read alike, the source gives them in different places.

Key:
[1] = test system: NCI-H522 Lung Cancer cell line; assay: MTT cell proliferation / cytotoxicity assay, NCI-H522; type: cell-based, human; details: for ED50 (in words): NCI-H522, MTT assay; for EC50: MTT, read-out: Effective Dose 50 (ED50)
Protocol: (§1) Examples measuring the effectiveness of mer-[RuCl3(DMSO)(dmpyz)2 in treating two lines of cancer cells is presented herein. Lung Cancer Cell lines NCI-H522 and NCI-H23 from ATCC were grown in RPMI (growth medium) supplemented with 10% heat inactivated fetal bovine serum (FBS) along with penicillin and streptomycin. All cells were grown at humidified, carbon dioxide enriched atmosphere (+37° C. with 5% CO2).
(§2) NCI-H522 cells were seeded at 50,000 cells/well and NCI-H23 at 30,000cells/well in a 96-well microtiter plate in RPMI with 10% FBS. Cells were incubated at humidified atmosphere (+37° C. with 5% CO2) for overnight attachment. A mer-[RuCl3(DMSO)(dmpyz)2 drug along with the positive control drug Doxorubicin were used in following concentrations (100 μM, 33 μM, 11 μM, 3.7 μM, 1.2 μM, 0.4 μM per well of cells) and added in triplicates and incubated for 3 time durations (24 hrs,48 hrs,72 hrs) at humidified atmosphere (37° C. with 5% CO2). Thereafter the cells were treated with 10 μl (final concentration 0.5 mg/ml) 3-(4,5-dimethylthiazol-2-yl)- 2,5-diphenyltetrazolium bromide (MTT, see Cell Proliferation Kit I MTT Roche: Cat No: 11465007001). The microplate were incubated for 4 hours in a humidified atmosphere (+37° C., 5% CO2). Four hours later 100 μl of solubilization solution (from Roche MTT kit) was added into each well. The plate were allowed to stand overnight in the incubator in a humidified atmosphere (+37° C., 5% CO2). The complete solubilization of the purple formazan crystals was check for and measure the absorbance of the samples using a microplate (ELISA) reader. The wavelength was measure for absorbance of the formazan product at 562 nm the reference wavelength used was 630 nm. Percentage viable cells were calculated as below. % viable cells=(ab of sample-ab of blank/ab control-ab blank) X100 % cytotoxicity or % inhibition=100−% viable cells
(§3) The Effective Dose 50 (ED50) was extrapolated from the dose-response graph. The drug concentration that reduced the viability of the cells by 50% (ED50) was determined by plotting data points over a concentration range and calculating values using PRISM program.
(§4) The MTT assay is used to measure cellular metabolic activity as an indicator of cell viability, proliferation and cytotoxicity. This colorimetric assay is based on the reduction of a yellow tetrazolium salt (3-(4,5-dimethylthiazol-2-yl)-2,5-diphenyltetrazolium bromide or MTT) to purple formazan crystals by metabolically active cells. Viable cells produce enzymes that convert yellow MTT to insoluble purple formazan. The more viable cells present in a sample, the more intense the purple color. This test is widely used in the in vitro evaluation of cytotoxic potency of drugs. In the present study we applied the MTT assay to evaluate the potency of mer-[RuC3(DMSO)(dmpyz)2 anti-cancer drug in various human lung cancer cell lines.

[2] = test system: NCI-H23 Lung Cancer cell line; assay: MTT cell proliferation / cytotoxicity assay, NCI-H23; type: cell-based, human; details: for ED50 (in words): NCI-H23, MTT assay; for EC50: MTT, read-out: Effective Dose 50 (ED50)
Protocol: as §1, §2, §3, §4

[3] = test system: H522 cell lines (NSCLC); assay: Ruthenium complex screening against cancer subtypes (FIG. 3); type: cell-based
Description: Still, preliminary tests show promise that dosage of RuCl3(DMSO)(dmPyz)2 is effective against NSCLC subtypes. FIG. 3 is a table showing the results of Ruthenium complex screening conducted to test the efficacy of the current Ruthenium (III) complexes to various cancer subtypes.

COc1cccc2c1C(=O)c1c(O)c3c(c(O)c1C2=O)C[C@@](O)(C(=O)CO)C[C@@H]3O[C@H]1C[C@H](N)[C@H](O)[C@H](C)O1 [doxorubicin, Doxorubicin, reference compound]
ED50 (in words) [1]: comparable to published data | ED50 (in words) [2]: comparable to published data

mer-[RuCl3(DMSO)(dmpyz)2
cytotoxic response ([1]; H522 cell lines, 33 μM concentration): highly toxic | EC50 ([1]; NCI-H522, 24 hrs treatment): 82.1 µM | EC50 ([1]; NCI-H522, 48 hrs treatment): 11.7 µM | EC50 ([1]; NCI-H522, 72 hrs treatment): 12.5 µM | ED50 (in words) [1]: modest micromolar | cell viability ([1]; NCI-H522, drug concentration 33 μM or more): reduces to zero | cytotoxic response ([2]; H23 cell lines, 100 μM concentration): highly toxic | EC50 ([2]; NCI-H23, 24 hrs treatment): 81.1 µM | EC50 ([2]; NCI-H23, 48 hrs treatment): 77.4 µM | EC50 ([2]; NCI-H23, 72 hrs treatment): 59.4 µM | ED50 (in words) [2]: modest micromolar | cell viability ([2]; NCI-H23, drug concentration 100 μM): reduces to zero | IC50 ([3]; suggested from 97% inhibition at 10 micromole): < 10 µM | inhibition of NSCLC ([3]; treatment of 10 micromole (M) purified, preliminary tests): 97%
